Drawing on PMC11339948 (Chemical Science, 2024), this text covers IC50 for two substances.

The IC50 is the concentration that inhibits the measured activity by half. A lower IC50 goes with inhibition by little substance.

Bridge positions count the residues as written; N and C are the ends. Square brackets hold non-standard residues; d marks the D form. Ends that are not written are not given here. pGlu = O=C1CC[C@@H](C(=O)O)N1

The experiment deals with full-length TDP1 (Homo sapiens, UniProt Q9NUW8). The experiment in a line: FRET-based TDP1 enzymatic activity inhibition assay. It counts as biochemical.
Chain of full-length TDP1 (Q9NUW8 whole entry): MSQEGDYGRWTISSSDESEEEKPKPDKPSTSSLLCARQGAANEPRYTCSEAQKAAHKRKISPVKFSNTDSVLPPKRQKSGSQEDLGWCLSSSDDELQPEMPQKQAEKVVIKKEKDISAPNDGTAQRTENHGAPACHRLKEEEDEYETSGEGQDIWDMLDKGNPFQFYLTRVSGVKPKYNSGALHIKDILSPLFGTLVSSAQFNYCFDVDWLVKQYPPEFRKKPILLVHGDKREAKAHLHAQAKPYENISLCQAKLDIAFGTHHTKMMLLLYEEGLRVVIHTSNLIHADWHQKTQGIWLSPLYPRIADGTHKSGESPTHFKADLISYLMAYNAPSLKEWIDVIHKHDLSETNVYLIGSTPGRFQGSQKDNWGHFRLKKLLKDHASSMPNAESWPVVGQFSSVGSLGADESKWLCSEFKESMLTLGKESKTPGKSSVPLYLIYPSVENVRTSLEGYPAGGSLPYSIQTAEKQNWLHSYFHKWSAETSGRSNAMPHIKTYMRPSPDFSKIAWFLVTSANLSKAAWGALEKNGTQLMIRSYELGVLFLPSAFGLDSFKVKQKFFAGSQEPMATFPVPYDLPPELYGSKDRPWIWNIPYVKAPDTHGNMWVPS

Turning to “[pGlu]EAFCYSDRFCQNYIGSIPDCCFGRGSYSFELQPPPWECYQC (disulfide 5-21, 11-39, 22-42) [Native recifin A, recifin A]”, the midpoint of inhibition, the IC50, lay at 800 nM.
The result for “[pGlu]EAFCYSDRFCQNYIGSIPDCCFGRGSYSFELQPPPWECYQC (disulfide 5-21, 11-39, 22-42) [Synthetic recifin A, recifin A]” reads 580 nM.
